Measured values taken from patent publication US20100247533A1, “TREATMENT WITH A HUMANIZED ANTI-EGFR IgG1 ANTIBODY AND IRINOTECAN” (priority 2009, published 2010).

Key:
[1] = system: A549 lung adenocarcinoma xenografts; assay: Animal survival study in vivo, A549 lung adenocarcinoma xenograft model; parameters: species or system SCID beige mice
Description: Partially fucosylated GlycArt-mAb was provided as stock solution (c=11.3 mg/ml), in a buffer containing histidine, trehalose and polysorbate 20. The antibody stock solution was appropriately diluted in PBS prior to injection.
The antibody concentration was adjusted by dilution of the reconstituted stock solution prior to injection.
Irinotecan/CPT-11 (Campto®) was purchased as clinical formulation (20 mg/ml) from Pfizer Pharma GmbH, Karlsruhe, Germany. The antibody concentration was adjusted by dilution of the reconstituted stock solution prior to injection.
A549 human Non Small Cell Lung Cancer (NSCLC) cells were obtained from ATCC. The tumor cell line was routinely cultured in RPMI medium (PAA Laboratories, Austria) supplemented with 10% fetal bovine serum (PAA Laboratories, Austria) and 2 mM L-glutamine, at 37° C. in a water-saturated atmosphere at 5% CO2.
Passage 3 of A549 cells was used for in vivo injection. 2×10^6 cells in PBS were injected intravenously (i.v.).
Female SCID beige mice; age 7-8 weeks at arrival (purchased from Charles River, Sulzfeld, Germany) were maintained under specific pathogen-free conditions with daily cycles of 12 h light/12 h darkness according to committed guidelines (GV-Solas; Felasa; TierschG). […]
The primary parameter was survival. The data was statistically analyzed by log rank test.

colorectal cancer = details: combined with 5-fluorouracil and leucovorin; first-line treatment for colorectal cancer; cited from earlier work

| Compound | p (log rank test), survival compared to vehicle control ([1]; antibodies 25 mg/kg i.p. every seven days, irinotecan 20 mg/kg i.p. four times, single agents or combinations) | animal survival compared to vehicle control ([1]; single agents, antibodies 25 mg/kg i.p. every seven days (day 7-98), irinotecan 20 mg/kg i.p. day 7, 10, 14, 17, A549 cells injected i.v.) | response rates (colorectal cancer) |
| --- | --- | --- | --- |
| CCc1c2c(nc3ccc(OC(=O)N4CCC(N5CCCCC5)CC4)cc13)-c1cc3c(c(=O)n1C2)COC(=O)[C@]3(O)CC [irinotecan] | 0.017 | significantly prolonged animal survival |  |
| O=C1[O][Pt]2([NH][C@@H]3CCCC[C@H]3[NH]2)[O]C1=O [oxaliplatin] |  |  | 25-40% |
